Results published in US20060069132A1, “Azolecarboxamide herbicides” (priority 2004, published 2006).

What was measured:
rice [1] = assay: Test B flooded paddy test; assay type: in vivo, Oryza sativa; details: 1000 g ai/ha, scale 0 to 100 (0 no effect, 100 complete control)
Procedure, shortened: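 Formulated test chemicals went onto postemergence plants measuring 2 to 18 cm, at one to four leaves. For the paddy assay, species had reached two leaves. Scoring took place 13–15 days later by eye, relative to untreated plants, using 0 for no effect up to 100 for full control.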

lambsquarters = assay: Test B pre-/postemergence herbicide test; assay type: in vivo, Chenopodium album; details: for Lambsquarters plant response rating: postemergence
Procedure, shortened: (§1)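 Plants compared with untreated controls 13–15 days post-treatment and given a visual 0–100 injury score. Applications: preemergence to seeds; postemergence at 1- to 4-leaf (2–18 cm); paddy species flooded, 2-leaf stage. Vehicle non-phytotoxic, surfactant included.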

giant foxtail = assay: Test B pre-/postemergence herbicide test; assay type: in vivo, Setaria faberi; details: for Foxtail, Giant plant response rating: postemergence
Procedure, shortened: as §1

corn = assay: Test B pre-/postemergence herbicide test; assay type: in vivo, Zea mays; details: for Corn plant response rating: postemergence
Procedure, shortened: as §1

large crabgrass = assay: Test B pre-/postemergence herbicide test; assay type: in vivo, Digitaria sanguinalis; details: for Crabgrass, Large plant response rating: postemergence
Procedure, shortened: as §1

barnyardgrass [2] = assay: Test B pre-/postemergence herbicide test; assay type: in vivo, Echinochloa crus-galli; details: for Barnyardgrass plant response rating: postemergence
Procedure, shortened: (§2)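 Flooded paddy rice and barnyardgrass were treated at the 2-leaf stage; upland plantings received compound either on sown seed or on 1- to 4-leaf seedlings. All were kept 13–15 days in a greenhouse and scored visually, 0–100, relative to untreated plants.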

Surinam grass = assay: Test B pre-/postemergence herbicide test; assay type: in vivo, Urochloa decumbens; details: for Surinam Grass plant response rating: postemergence
Procedure, shortened: as §1

[3] = system: small flower umbrella sedge; assay: Test B flooded paddy test; assay type: in vivo, Cyperus difformis; details: 1000 g ai/ha, scale 0 to 100 (0 no effect, 100 complete control)
Procedure, shortened: (§3)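 After treating 2-leaf paddy plants or 2–18 cm postemergence plants (1 to 4 leaves) with formulated chemical, researchers kept them in a greenhouse for 13–15 days. Effects were judged visually versus controls: 0 indicates none, 100 total control.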

ducksalad [4] = assay: Test C flooded paddy test; assay type: in vivo, Heteranthera limosa
wheat = assay: Test B postemergence herbicide test; assay type: in vivo, Triticum aestivum; design: key to Wheat plant response rating: 0 = no effect, 100 = complete control; details: postemergence
Procedure, shortened: (§4)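 Treated at 2-leaf (paddy) or 1–4-leaf, 2–18 cm (postemergence); greenhouse 13–15 d; visual score vs control, 0 none to 100 complete control; dash = not tested.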

barnyardgrass [5] = assay: Test C flooded paddy test; assay type: in vivo, Echinochloa crus-galli
Procedure, shortened: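 After a postemergence application at 1 to 4 leaves (plants 2–18 cm high), or at 2 leaves for barnyardgrass in flooded paddy, plants stayed in the greenhouse for 12 to 14 days. Damage was then judged visually relative to control plants, with 100 indicating complete control.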

rice [6] = assay: Test C flooded paddy test; assay type: in vivo, Oryza sativa
Procedure, shortened: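 Postemergence sprays applied to plants 2 to 18 cm tall (1- to 4-leaf stage); paddy species grown to 2-leaf stage under flooding. After 12 to 14 days in greenhouse, visual rating versus untreated controls on 0–100 scale (0 no effect, 100 complete control).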

morningglory = assay: Test B pre-/postemergence herbicide test; assay type: in vivo, Ipomoea coccinea; details: for Morningglory plant response rating: postemergence
Procedure, shortened: as §2

velvetleaf = assay: Test B pre-/postemergence herbicide test; assay type: in vivo, Abutilon theophrasti; details: for Velvetleaf plant response rating: postemergence
Procedure, shortened: as §1

pigweed = assay: Test B pre-/postemergence herbicide test; assay type: in vivo, Amaranthus retroflexus; details: for Pigweed plant response rating: postemergence
Procedure, shortened: as §1

ducksalad [7] = assay: Test B flooded paddy test; assay type: in vivo, Heteranthera limosa; details: 1000 g ai/ha, scale 0 to 100 (0 no effect, 100 complete control)
Procedure, shortened: as §3

[8] = system: smallflower umbrella sedge; assay: Test C flooded paddy test; assay type: in vivo, Cyperus difformis
barnyardgrass [9] = assay: Test B flooded paddy test; assay type: in vivo, Echinochloa crus-galli; details: 1000 g ai/ha, scale 0 to 100 (0 no effect, 100 complete control)
Procedure, shortened: as §3

cocklebur = assay: Test B pre-/postemergence herbicide test; assay type: in vivo, Xanthium strumarium; details: for Cocklebur plant response rating: postemergence
Procedure, shortened: as §2

blackgrass = assay: Test B postemergence herbicide test; assay type: in vivo, Alopecurus myosuroides; details: postemergence
Procedure, shortened: as §3

wild oat = assay: Test B postemergence herbicide test; assay type: in vivo, Avena fatua; details: postemergence
Procedure, shortened: as §4

[10] = 125 g ai/ha, 0 is no effect, 100 is complete control, preemergence
[11] = 125 g ai/ha, visual rating, scale 0 (no effect) to 100 (complete control)
[12] = 500 g ai/ha, visual rating, 0 = no effect, 100 = complete control, preemergence
[13] = 500 g ai/ha, scale 0 to 100, 0 is no effect, 100 is complete control
[14] = 125 g ai/ha, scale 0 to 100 (0 no effect, 100 complete control)
[15] = 250 g ai/ha, scale of 0 to 100, 0 is no effect, 100 is complete control
[16] = 500 g ai/ha, visual rating after 12 to 14 days, scale 0 to 100 (0 no effect, 100 complete control)

CCNC(=S)c1ccc(F)c(NC(=O)c2cc(C(C)(C)C)nn2CC)c1 [Compound 349]
Rice plant response rating (rice [1]): 70
Plant response rating (0 to 100 scale), Lambsquarters (lambsquarters; [10]): 100
Lambsquarters plant response rating (lambsquarters; [11]): 0
Plant response rating, Lambsquarters (lambsquarters; [12]): 100
Lambsquarters plant response rating (lambsquarters; [13]): 80
Plant response rating (0 to 100 scale), Foxtail, Giant (giant foxtail; [10]): 70
Foxtail, Giant plant response rating (giant foxtail; [11]): 0
Plant response rating, Foxtail, Giant (giant foxtail; [12]): 100
Foxtail, Giant plant response rating (giant foxtail; [13]): 30
Plant response rating (0 to 100 scale), Corn (corn; [10]): 70
Corn plant response rating (corn; [11]): 0
Plant response rating, Corn (corn; [12]): 80
Corn plant response rating (corn; [13]): 10
Plant response rating (0 to 100 scale), Crabgrass, Large (large crabgrass; [10]): 100
Crabgrass, Large plant response rating (large crabgrass; [11]): 20
Plant response rating, Crabgrass, Large (large crabgrass; [12]): 100
Crabgrass, Large plant response rating (large crabgrass; [13]): 20
Plant response rating (0 to 100 scale), Barnyardgrass (barnyardgrass [2]; [10]): 80
Barnyardgrass plant response rating (barnyardgrass [2]; [11]): 0
Plant response rating, Barnyardgrass (barnyardgrass [2]; [12]): 100
Barnyardgrass plant response rating (barnyardgrass [2]; [13]): 10
Plant response rating (0 to 100 scale), Surinam Grass (Surinam grass; [10]): 50
Surinam Grass plant response rating (Surinam grass; [11]): 0
Plant response rating, Surinam Grass (Surinam grass; [12]): 90
Surinam Grass plant response rating (Surinam grass; [13]): 20
Sedge, Umbrella plant response rating [3]: 80
Ducksalad plant response rating (ducksalad [4]; 62 g ai/ha, scale 0 to 100): 80
Ducksalad plant response rating (ducksalad [4]; [14]): 85
Ducksalad plant response rating (ducksalad [4]; [15]): 85
Plant response rating, Ducksalad (ducksalad [4]; [16]): 95
Wheat plant response rating (wheat; [11]): 0
Wheat plant response rating (wheat; [13]): 10
Barnyardgrass plant response rating (barnyardgrass [5]; 62 g ai/ha, scale 0 to 100 (0 no effect, 100 complete control)): 45
Barnyardgrass plant response rating (barnyardgrass [5]; [14]): 70
Barnyardgrass plant response rating (barnyardgrass [5]; [15]): 90
Plant response rating, Barnyardgrass (barnyardgrass [5]; [16]): 95
Rice plant response rating (rice [6]; 62 g ai/ha, scale 0 to 100): 50
Rice plant response rating (rice [6]; [14]): 55
Rice plant response rating (rice [6]; [15]): 60
Plant response rating, Rice (rice [6]; [16]): 70
Plant response rating (0 to 100 scale), Morningglory (morningglory; [10]): 0
Morningglory plant response rating (morningglory; [11]): 0
Plant response rating, Morningglory (morningglory; [12]): 30
Morningglory plant response rating (morningglory; [13]): 50
Plant response rating (0 to 100 scale), Velvetleaf (velvetleaf; [10]): 30
Velvetleaf plant response rating (velvetleaf; [11]): 0
Velvetleaf plant response rating (velvetleaf; [13]): 40
Plant response rating (0 to 100 scale), Pigweed (pigweed; [10]): 100
Pigweed plant response rating (pigweed; [11]): 0
Plant response rating, Pigweed (pigweed; [12]): 100
Pigweed plant response rating (pigweed; [13]): 70
Ducksalad plant response rating (ducksalad [7]): 90
Sedge, Umbrella plant response rating ([8]; 62 g ai/ha, scale 0 to 100): 80
Sedge, Umbrella plant response rating [8, 14]: 85
Sedge, Umbrella plant response rating [8, 15]: 90
Plant response rating, Sedge, Umbrella [8, 16]: 95
Barnyardgrass plant response rating (barnyardgrass [9]): 80
Plant response rating (0 to 100 scale), Cocklebur (cocklebur; [10]): 0
Cocklebur plant response rating (cocklebur; [11]): 0
Plant response rating, Cocklebur (cocklebur; [12]): 80
Cocklebur plant response rating (cocklebur; [13]): 20
Blackgrass plant response rating (blackgrass; [11]): 20
Blackgrass plant response rating (blackgrass; [13]): 80
Oat, Wild plant response rating (wild oat; [11]): 10
Oat, Wild plant response rating (wild oat; [13]): 40
